Experimental data taken from patent publication US20120041035A1, “LEVAMLODIPINE COMPOUND PHARMACEUTICAL COMPOSITION” (SHIHUIDA PHARMACEUTICALS GROUP (JILIN) LTD, priority 2010, published 2012).

Test system: primary hypertension patients (systolic pressure ≧160 mmHg)
Experiment: Clinical use in primary hypertension patients, 8-week treatment
Type: in vivo, human
Conditions: after 8-week treatment, levamlodipine 5.0 mg/d, chlorthalidone 25.0 mg/d; for Edema Incidence / Hypokalemia Incidence: combined 2.5 mg/d and 12.5 mg/d; for Decrease of Systolic Pressure: combined levamlodipine 2.5 mg/d and chlorthalidone 12.5 mg/d, 30 patients each
Description: The selected primary hypertension patients (with a systolic pressure ≧160 mmHg) were divided into 3 groups of 30 patients each, the levamlodipine group was given levamlodipine at 5.0 mg/d; the chlorthalidone group was given chlorthalidone at 25.0 mg/d; and the combined administration group was given levamlodipine at 2.5 mg/d and chlorthalidone at 12.5 mg/d. After 8-week treatment, the decease of the systolic pressure, the edema incidence, and the hypokalemia incidence were observed.

Row | Compound | Edema Incidence | Hypokalemia Incidence | Decrease of Systolic Pressure
1 | NS(=O)(=O)c1cc(C2(O)NC(=O)c3ccccc32)ccc1Cl (stereo not drawn) [Chlorthalidone, 5(2,3-dihydro-1-hydroxy-3-oxo-1H-isoindol-1-yl)-2-chlorobenzenesulfonamide] | 0% | 20.3% | 20.5 ± 8.5 mmHg
2 | CCOC(=O)C1=C(COCCN)NC(C)=C(C(=O)OC)[C@@H]1c1ccccc1Cl [Levamlodipine, 3-ethyl-5-methyl-2-(2-aminoethoxymethyl)-4-(2-chlorophenyl)-1,4-dihydro-6-methyl-3,5-pyridine dicarboxylate] | 10% | 0% | 22.7 ± 7.8 mmHg
